The target in test [1] is T1, Serine/threonine-protein kinase NLK (Homo sapiens) (UniProt Q9UBE8).
T1 sequence (whole entry): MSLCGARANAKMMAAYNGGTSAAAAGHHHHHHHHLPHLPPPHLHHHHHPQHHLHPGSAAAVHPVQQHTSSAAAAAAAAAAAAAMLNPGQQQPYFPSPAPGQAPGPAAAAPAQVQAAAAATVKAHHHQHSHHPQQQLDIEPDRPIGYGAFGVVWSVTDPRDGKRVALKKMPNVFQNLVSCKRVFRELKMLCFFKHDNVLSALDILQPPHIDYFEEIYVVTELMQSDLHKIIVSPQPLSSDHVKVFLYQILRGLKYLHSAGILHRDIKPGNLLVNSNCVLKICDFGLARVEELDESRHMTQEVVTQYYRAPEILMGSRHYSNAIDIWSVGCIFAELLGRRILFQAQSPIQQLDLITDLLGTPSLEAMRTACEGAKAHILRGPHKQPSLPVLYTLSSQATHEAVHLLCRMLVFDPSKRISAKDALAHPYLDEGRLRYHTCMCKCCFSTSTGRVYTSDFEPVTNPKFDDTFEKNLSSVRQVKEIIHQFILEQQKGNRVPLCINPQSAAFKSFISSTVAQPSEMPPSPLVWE
Kind of test: Inhibition of NLK (unknown origin) relative to control. The note with it: concentration not given here.

The target of test [2] is Mitogen-activated protein kinase 9 (Homo sapiens) (UniProt P45984). Description: Inhibition of JNK2 (unknown origin) relative to control. The following applies: concentration not given here.
Sequence of Mitogen-activated protein kinase 9 (Homo sapiens) (P45984 whole entry, looked up): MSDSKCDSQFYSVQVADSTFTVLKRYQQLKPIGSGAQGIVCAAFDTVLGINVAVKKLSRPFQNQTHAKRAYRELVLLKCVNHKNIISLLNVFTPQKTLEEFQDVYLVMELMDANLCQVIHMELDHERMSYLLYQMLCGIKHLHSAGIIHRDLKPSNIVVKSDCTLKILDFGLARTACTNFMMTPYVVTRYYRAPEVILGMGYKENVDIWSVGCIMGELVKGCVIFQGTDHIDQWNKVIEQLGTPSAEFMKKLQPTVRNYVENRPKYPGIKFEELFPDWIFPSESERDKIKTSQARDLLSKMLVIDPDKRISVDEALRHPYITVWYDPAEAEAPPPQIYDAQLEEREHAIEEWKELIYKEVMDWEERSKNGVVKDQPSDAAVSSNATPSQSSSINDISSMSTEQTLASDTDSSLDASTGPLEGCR
Test [3] deals with Mitogen-activated protein kinase 10 (Homo sapiens) (UniProt P53779). Description: Inhibition of JNK3 (unknown origin) relative to control. The note with it: concentration not given here.
Sequence of Mitogen-activated protein kinase 10 (Homo sapiens) (P53779 whole entry): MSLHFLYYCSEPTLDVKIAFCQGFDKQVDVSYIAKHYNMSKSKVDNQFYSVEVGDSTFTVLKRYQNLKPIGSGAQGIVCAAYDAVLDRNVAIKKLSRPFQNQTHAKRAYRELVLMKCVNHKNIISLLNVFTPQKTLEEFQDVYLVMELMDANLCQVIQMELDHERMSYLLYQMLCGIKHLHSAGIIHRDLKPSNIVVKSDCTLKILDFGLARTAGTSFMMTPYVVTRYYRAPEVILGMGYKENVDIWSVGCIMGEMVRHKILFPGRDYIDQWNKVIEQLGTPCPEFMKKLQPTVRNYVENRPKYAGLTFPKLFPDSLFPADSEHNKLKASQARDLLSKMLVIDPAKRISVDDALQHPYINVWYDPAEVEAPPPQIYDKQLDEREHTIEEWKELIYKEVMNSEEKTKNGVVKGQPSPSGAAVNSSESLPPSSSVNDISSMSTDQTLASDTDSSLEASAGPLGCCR
Test [4] deals with T2, Dual specificity protein kinase TTK (Homo sapiens, UniProt P33981).
T2 sequence (P33981 whole entry): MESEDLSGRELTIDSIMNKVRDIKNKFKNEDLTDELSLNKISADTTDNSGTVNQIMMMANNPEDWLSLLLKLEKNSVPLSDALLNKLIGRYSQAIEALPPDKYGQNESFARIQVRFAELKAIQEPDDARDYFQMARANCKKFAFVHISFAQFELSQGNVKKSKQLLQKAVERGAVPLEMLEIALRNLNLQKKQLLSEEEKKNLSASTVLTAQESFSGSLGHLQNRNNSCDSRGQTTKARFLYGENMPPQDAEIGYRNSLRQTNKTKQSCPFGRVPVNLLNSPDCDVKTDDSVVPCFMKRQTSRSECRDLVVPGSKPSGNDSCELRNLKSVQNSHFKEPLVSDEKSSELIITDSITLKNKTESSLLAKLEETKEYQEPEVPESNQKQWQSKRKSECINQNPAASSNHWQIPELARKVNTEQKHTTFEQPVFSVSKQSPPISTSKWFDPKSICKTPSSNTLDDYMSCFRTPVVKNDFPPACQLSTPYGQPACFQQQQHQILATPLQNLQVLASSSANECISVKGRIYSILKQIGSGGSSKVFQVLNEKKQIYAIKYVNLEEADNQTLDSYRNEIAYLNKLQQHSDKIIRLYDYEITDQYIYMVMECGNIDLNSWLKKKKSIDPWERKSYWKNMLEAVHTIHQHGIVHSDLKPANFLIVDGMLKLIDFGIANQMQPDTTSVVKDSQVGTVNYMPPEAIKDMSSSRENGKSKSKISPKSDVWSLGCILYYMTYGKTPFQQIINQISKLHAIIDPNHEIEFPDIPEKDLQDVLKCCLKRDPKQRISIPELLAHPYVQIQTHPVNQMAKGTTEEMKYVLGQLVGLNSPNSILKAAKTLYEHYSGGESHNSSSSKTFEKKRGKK
Kind of test: Inhibition of full-length MPS1 (unknown origin) using fluorescein-labeled MBP-derived peptide as substrate preincubated for 1 hr followed by substrate addition measured after 2 hrs in presence of ATP by FP assay.

Test [5] deals with T3, Dual specificity protein kinase TTK (Homo sapiens) (UniProt P33981).
T3 sequence (whole entry): T2 sequence (P33981 whole entry)
The following applies: dose 100.0 nM.

Usually inhibition stands for how much of the control response was suppressed. Low readings indicate a weak effect, high ones a strong effect. Broadly, the IC50 is the midpoint of a concentration-inhibition curve.

Take `Cn1cc(-c2cc3cnc(Nc4ccc(-c5cncn5C)cc4Cl)cc3n2C(=O)OC(C)(C)C)cn1`: the inhibition in test [1], in test [2] and in test [3] was 80% throughout.

As for `CN1CCC(c2ccc(Nc3ncc4c(n3)-n3ccc(C(N)=O)c3CC4)cc2)CC1`, in test [4], the IC50 turned out to be 7.6 nM.

For the compound `CCc1n[nH]c(CC)c1NC(=O)c1ccn2c1CCc1cnc(Nc3ccc(N4CCN(C)CC4)cc3OC)nc1-2`, the IC50 in test [4] was 1.2 nM. The inhibition in test [5] was greater than 90%.

Compound `CCc1nn(CCOCCOC)c(CC)c1NC(=O)c1ccn2c1CCc1cnc(Nc3ccc(N4CCN(C)CC4)cc3OC)nc1-2` showed an inhibition in test [5] greater than 90%.

Source of the values: ChEMBL document CHEMBL5356974, “Development of MPS1 Inhibitors: Recent Advances and Perspectives” (J Med Chem, 2023).
